Data taken from patent US8952024B2, “Herbicidal pyrimidone derivatives” (E I du Pont de Nemours and Company, priority 2009, dated 2015).
Like-named read-outs stand apart in the source and are kept apart here.

Columns and labels:
Format in all cases: in vivo
[1] = system: large crabgrass (Digitaria sanguinalis); assay: Test A pre-/postemergence plant response; details: Digitaria sanguinalis, 240 h; for pest or weed control at 125 g/ha: 125 g ai/ha; for pest or weed control at 500 g/ha: 500 g ai/ha
Summary of the method: (§1)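 Visually rated 0–100 injury (100 = complete control) versus untreated plants, ~10 days in greenhouse. Application pre- (soil spray, loam/sand) and postemergence (2–10 cm, 1–2 leaf stage), same timepoint.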

[2] = system: wheat (Triticum aestivum); assay: Test A pre-/postemergence plant response; details: Triticum aestivum, 240 h; for plant injury at 125 g/ha: 125 g ai/ha; for plant injury at 500 g/ha: 500 g ai/ha
Summary of the method: as §1

[3] = system: pigweed (Amaranthus retroflexus); assay: Test A pre-/postemergence plant response; details: Amaranthus retroflexus, 240 h; for pest or weed control at 125 g/ha: 125 g ai/ha; for pest or weed control at 500 g/ha: 500 g ai/ha
Summary of the method: as §1

[4] = system: corn (Zea mays); assay: Test A pre-/postemergence plant response; details: Zea mays, 240 h; for Corn plant response rating (crop injury, 0 = no effect, 100 = complete kill) at 125 g/ha: 125 g ai/ha
Summary of the method: as §1

[5] = system: morningglory (Ipomoea spp.); assay: Test A pre-/postemergence plant response; details: Ipomoea, 240 h; for pest or weed control at 125 g/ha: 125 g ai/ha; for pest or weed control at 500 g/ha: 500 g ai/ha
Summary of the method: as §1

[6] = system: giant foxtail (Setaria faberii); assay: Test A pre-/postemergence plant response; details: Setaria faberi, 240 h; for pest or weed control at 125 g/ha: 125 g ai/ha; for pest or weed control at 500 g/ha: 500 g ai/ha
Summary of the method: as §1

[7] = system: barnyardgrass (Echinochloa crus-galli); assay: Test A pre-/postemergence plant response; details: Echinochloa crus-galli, 240 h; for pest or weed control at 125 g/ha: 125 g ai/ha; for pest or weed control at 500 g/ha: 500 g ai/ha
Summary of the method: as §1

[8] = system: velvetleaf (Abutilon theophrasti); assay: Test A pre-/postemergence plant response; details: Abutilon theophrasti, 240 h; for pest or weed control at 125 g/ha: 125 g ai/ha; for pest or weed control at 500 g/ha: 500 g ai/ha
Summary of the method: as §1

[9] = system: rice (Oryza sativa); assay: Test B flooded paddy test
Summary of the method: (§2)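 Greenhouse-held for 13 to 15 days, treated pots were compared visually with controls and scored 0–100 (0, no effect). Treatment had been made into paddy water kept at 3 cm above the soil, with plants at the 2-leaf stage.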

[10] = system: umbrella sedge (Cyperus difformis); assay: Test B flooded paddy test
Summary of the method: as §2

[11] = system: ducksalad (Heteranthera limosa); assay: Test B flooded paddy test
Summary of the method: as §2

[12] = system: barnyardgrass (Echinochloa crus-galli); assay: Test B flooded paddy test
Summary of the method: as §2

[13] = system: winter barley (Hordeum vulgare); assay: Test B postemergence plant response; details: Hordeum vulgare, post-emergence, Postemergence, read-out: Plant response rating, Barley
Summary of the method: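 Plants grown in peat/vermiculite medium were sprayed postemergence at 2–18 cm height (1- to 4-leaf stage). After 13–15 days in the greenhouse, response was rated visually against untreated controls on a 0–100 scale (0 no effect, 100 complete control).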

[14] = pre-emergence, Preemergence, 0 to 100 scale, 0 = no effect, 100 = complete control, read-out: Plant response rating, Crabgrass, Large
[15] = pre-emergence, Preemergence, 0 to 100 scale, 0 = no effect, 100 = complete control, read-out: Plant response rating, Wheat
[16] = pre-emergence, Preemergence, 0 to 100 scale, 0 = no effect, 100 = complete control, read-out: Plant response rating, Pigweed
[17] = pre-emergence, Preemergence, 0 to 100 scale, 0 = no effect, 100 = complete control, read-out: Plant response rating, Morningglory
[18] = pre-emergence, Preemergence, 0 to 100 scale, 0 = no effect, 100 = complete control, read-out: Plant response rating, Foxtail, Giant
[19] = pre-emergence, Preemergence, 0 to 100 scale, 0 = no effect, 100 = complete control, read-out: Plant response rating, Barnyardgrass
[20] = pre-emergence, Preemergence, 0 to 100 scale, 0 = no effect, 100 = complete control, read-out: Plant response rating, Velvetleaf
[21] = Flood, 31 g ai/ha, scale 0 to 100 (0 no effect, 100 complete control)

COCCn1c(-c2cc(F)cc(F)c2)ncc(C(=O)C2=C(O)C3CCC(C3)C2=O)c1=O (stereo not shown) [Compound 243, 2-(3,5-difluorophenyl)-5-[(2-hydroxy-4-oxobicyclo[3.2.1]oct-2-en-3-yl)carbonyl]-3-(2-methoxyethyl)-4(3H)-pyrimidinone]
70%: plant injury at 125 g/ha ([2]; post-emergence, Postemergence, 0 to 100 scale where 0 is no effect and 100 is complete control, read-out: Plant response rating, Wheat) | plant injury at 500 g/ha [2, 15] | Corn plant response rating (crop injury, 0 = no effect, 100 = complete kill) at 125 g/ha ([4]; post-emergence, Postemergence, 0 to 100 scale where 0 is no effect and 100 is complete control) | pest or weed control at 125 g/ha [5, 17] | pest or weed control at 125 g/ha [7, 19]
60%: Corn plant response rating (crop injury, 0 = no effect, 100 = complete kill) at 500 g/ha ([4]; pre-emergence, Preemergence, 500 g ai/ha, 0 to 100 scale, 0 = no effect, 100 = complete control) | plant injury at 62 g/ha ([9]; Oryza sativa, Flood (flooded paddy test), 62 g ai/ha, scale of 0 to 100 where 0 is no effect and 100 is complete control, 13 to 15 days, read-out: Plant response rating, Rice) | plant injury at 31 g/ha ([13]; 31 g ai/ha, 0 to 100 scale (0 no effect, 100 complete control))
45: Rice plant response rating [9, 21]
0: Sedge, Umbrella plant response rating [10, 21] | Ducksalad plant response rating [11, 21] | Barnyardgrass plant response rating [12, 21]
30%: plant injury at 125 g/ha [2, 15] | Corn plant response rating (crop injury, 0 = no effect, 100 = complete kill) at 125 g/ha ([4]; pre-emergence, Preemergence, 0 to 100 scale, 0 = no effect, 100 = complete control) | pest or weed control at 62 g/ha ([12]; Echinochloa crus-galli, 360 h, Flood (flooded paddy test), 62 g ai/ha, scale of 0 to 100 where 0 is no effect and 100 is complete control, 13 to 15 days, read-out: Plant response rating, Barnyardgrass)
100%: pest or weed control at 125 g/ha [1, 14] | pest or weed control at 500 g/ha [1, 14] | pest or weed control at 125 g/ha ([3]; post-emergence, Postemergence, 0 to 100 scale where 0 is no effect and 100 is complete control, read-out: Plant response rating, Pigweed) | pest or weed control at 500 g/ha ([3]; post-emergence, Postemergence, visual injury, 0 to 100 scale (0 no effect, 100 complete control), approx. ten days, read-out: Pigweed plant response rating) | pest or weed control at 125 g/ha [3, 16] | pest or weed control at 500 g/ha [3, 16] | pest or weed control at 125 g/ha ([5]; post-emergence, Postemergence, 0 to 100 scale where 0 is no effect and 100 is complete control, read-out: Plant response rating, Morningglory) | pest or weed control at 500 g/ha ([5]; post-emergence, Postemergence, visual injury, 0 to 100 scale (0 no effect, 100 complete control), approx. ten days, read-out: Morningglory plant response rating) | pest or weed control at 125 g/ha ([6]; post-emergence, Postemergence, 0 to 100 scale where 0 is no effect and 100 is complete control, read-out: Plant response rating, Foxtail, Giant) | pest or weed control at 500 g/ha ([6]; post-emergence, Postemergence, visual injury, 0 to 100 scale (0 no effect, 100 complete control), approx. ten days, read-out: Foxtail, Giant plant response rating) | pest or weed control at 500 g/ha [6, 18] | pest or weed control at 125 g/ha ([7]; post-emergence, Postemergence, 0 to 100 scale where 0 is no effect and 100 is complete control, read-out: Plant response rating, Barnyardgrass) | pest or weed control at 500 g/ha ([7]; post-emergence, Postemergence, visual injury, 0 to 100 scale (0 no effect, 100 complete control), approx. ten days, read-out: Barnyardgrass plant response rating) | pest or weed control at 500 g/ha [7, 19] | pest or weed control at 125 g/ha ([8]; post-emergence, Postemergence, 0 to 100 scale where 0 is no effect and 100 is complete control, read-out: Plant response rating, Velvetleaf) | pest or weed control at 500 g/ha ([8]; post-emergence, Postemergence, visual injury, 0 to 100 scale (0 no effect, 100 complete control), approx. ten days, read-out: Velvetleaf plant response rating) | pest or weed control at 500 g/ha [8, 20] | pest or weed control at 250 g/ha ([10]; Cyperus difformis, 360 h, 250 g ai/ha, flooded paddy test, visual rating on 0 to 100 scale (0 no effect, 100 complete control) after 13 to 15 days, read-out: Plant response rating, Flood, Sedge, Umbrella) | pest or weed control at 125 g/ha ([10]; Cyperus difformis, 360 h, Flood (flooded paddy test), 125 g ai/ha, scale 0 to 100, 0 is no effect, 100 is complete control, 13 to 15 days, read-out: Plant response rating, Sedge, Umbrella) | pest or weed control at 250 g/ha ([11]; Heteranthera limosa, 360 h, 250 g ai/ha, flooded paddy test, visual rating on 0 to 100 scale (0 no effect, 100 complete control) after 13 to 15 days, read-out: Plant response rating, Flood, Ducksalad) | pest or weed control at 125 g/ha ([11]; Heteranthera limosa, 360 h, Flood (flooded paddy test), 125 g ai/ha, scale 0 to 100, 0 is no effect, 100 is complete control, 13 to 15 days, read-out: Plant response rating, Ducksalad)
75%: plant injury at 250 g/ha ([9]; Oryza sativa, 250 g ai/ha, flooded paddy test, visual rating on 0 to 100 scale (0 no effect, 100 complete control) after 13 to 15 days, read-out: Plant response rating, Flood, Rice) | pest or weed control at 125 g/ha ([12]; Echinochloa crus-galli, 360 h, Flood (flooded paddy test), 125 g ai/ha, scale 0 to 100, 0 is no effect, 100 is complete control, 13 to 15 days, read-out: Plant response rating, Barnyardgrass)
90%: pest or weed control at 125 g/ha ([1]; post-emergence, Postemergence, 0 to 100 scale where 0 is no effect and 100 is complete control, read-out: Plant response rating, Crabgrass, Large) | pest or weed control at 500 g/ha ([1]; post-emergence, Postemergence, visual injury, 0 to 100 scale (0 no effect, 100 complete control), approx. ten days, read-out: Crabgrass, Large plant response rating) | plant injury at 500 g/ha ([2]; post-emergence, Postemergence, visual injury, 0 to 100 scale (0 no effect, 100 complete control), approx. ten days, read-out: Wheat plant response rating) | plant injury at 500 g/ha ([4]; post-emergence, Postemergence, 500 g ai/ha, visual injury, 0 to 100 scale (0 no effect, 100 complete control), approx. ten days, read-out: Corn plant response rating) | pest or weed control at 500 g/ha [5, 17] | pest or weed control at 125 g/ha [6, 18] | pest or weed control at 125 g/ha [8, 20] | pest or weed control at 62 g/ha ([10]; Cyperus difformis, 360 h, Flood (flooded paddy test), 62 g ai/ha, scale of 0 to 100 where 0 is no effect and 100 is complete control, 13 to 15 days, read-out: Plant response rating, Sedge, Umbrella) | plant injury at 62 g/ha ([13]; 62 g ai/ha, scale 0 to 100 (0 no effect, 100 complete control))
95%: plant injury at 125 g/ha ([9]; Oryza sativa, Flood (flooded paddy test), 125 g ai/ha, scale 0 to 100, 0 is no effect, 100 is complete control, 13 to 15 days, read-out: Plant response rating, Rice) | plant injury at 125 g/ha ([13]; 125 g ai/ha, scale 0 (no effect) to 100 (complete control), 13 to 15 days) | plant injury at 250 g/ha ([13]; 250 g ai/ha, scale 0 to 100 (0 no effect, 100 complete control), 13 to 15 days)
85%: pest or weed control at 62 g/ha ([11]; Heteranthera limosa, 360 h, Flood (flooded paddy test), 62 g ai/ha, scale of 0 to 100 where 0 is no effect and 100 is complete control, 13 to 15 days, read-out: Plant response rating, Ducksalad) | pest or weed control at 250 g/ha ([12]; Echinochloa crus-galli, 360 h, 250 g ai/ha, flooded paddy test, visual rating on 0 to 100 scale (0 no effect, 100 complete control) after 13 to 15 days, read-out: Plant response rating, Flood, Barnyardgrass)
